Measured values as given in ChEMBL document CHEMBL5543162, “Discovery of a Novel Orally Bioavailable FLT3-PROTAC Degrader for Efficient Treatment of Acute Myeloid Leukemia and Overcoming Resistance of FLT3 Inhibitors” (J Med Chem, 2024).
One block for each compound: values may come before it. Activity calls are given as the source filed them. The calls are words filed in the database; no cut-off is given here.

Legend:
MV4-11 [1] = test: Antiproliferative activity against human MV4-11 cells expressing FLT3-ITD mutant incubated for 48 hrs by CCK8 assay; type: functional, cell-based; conditions: MV4-11, 48 h
MOLM-13 [2] = test: Antiproliferative activity against human MOLM-13 cells incubated for 48 hrs by CCK8 assay; type: functional, cell-based; conditions: MOLM-13, 48 h
[3] = test system: Protein cereblon/Receptor-type tyrosine-protein kinase FLT3 (Homo sapiens), P36888+Q96SW2 [UNDEFINED MUTATION]; test: PROTAC activity at CRBN/FLT3-ITD mutant in human MV4-11 cells assessed as protein degradation at 100 nM incubated for 8 hrs by Western blot analysis; type: cell-based
[4] = test system: Protein cereblon/Receptor-type tyrosine-protein kinase FLT3 (Homo sapiens), P36888+Q96SW2 [UNDEFINED MUTATION]; test: PROTAC activity at CRBN/FLT3-ITD mutant in human MOLM-13 cells assessed as protein degradation at 100 nM incubated for 8 hrs by Western blot analysis; type: cell-based
MV4-11 [5] = test: Induction of apoptosis in human MV4-11 cells at 50 nM incubated for 24 hrs by Annexin V-FITC/PI staining based flow cytometry; type: functional, cell-based
MOLM-13 [6] = test: Induction of apoptosis in human MOLM-13 cells at 50 nM incubated for 24 hrs by Annexin V-FITC/PI staining based flow cytometry; type: functional, cell-based
MOLM-13 [7] = test: Antiproliferative activity against Sunitinib-resistant human MOLM-13 cells incubated for 48 hrs by CCK8 assay; type: functional, cell-based; conditions: MOLM-13, 48 h
MOLM-13 [8] = test: Antiproliferative activity against Quizartinib-resistant human MOLM-13 cells incubated for 48 hrs by CCK8 assay; type: functional, cell-based; conditions: MOLM-13, 48 h
[9] = Antiproliferative activity against human THP-1 cells expressing wild-type FLT3 incubated for 48 hrs by CCK8 assay; type: toxicity, cell-based
[10] = Antiproliferative activity against human U-937 cells expressing wild-type FLT3 incubated for 48 hrs by CCK8 assay; type: toxicity, cell-based
[11] = Antiproliferative activity against human HL-60 cells expressing wild-type FLT3 incubated for 48 hrs by CCK8 assay; type: toxicity, cell-based
MV4-11 [12] = test: Antitumor activity against human MV4-11 cells xenografted in nu/nu mouse at 1.6 mg/kg, po administered daily for 2 weeks relative to control; type: functional; conditions: MV4-11, 336 h, read-out: TGI
[13] = Stability in human liver microsomes assessed as half life; type: ADME, Microsome
[14] = Stability in dog liver microsomes assessed as half life; type: ADME, Canis lupus familiaris, Microsome
[15] = Stability in monkey liver microsomes assessed as half life; type: ADME, Microsome; conditions: chlorocebus aethiops
[16] = Stability in rat liver microsomes assessed as half life; type: ADME, Microsome
[17] = Stability in mouse liver microsomes assessed as half life; type: ADME, Microsome
[18] = Stability in human liver microsomes assessed as intrinsic clearance; type: ADME, Microsome; conditions: read-out: CLH
[19] = Stability in dog liver microsomes assessed as intrinsic clearance; type: ADME, Canis lupus familiaris, Microsome; conditions: read-out: CLH
[20] = Stability in monkey liver microsomes assessed as intrinsic clearance; type: ADME, Microsome; conditions: chlorocebus aethiops, read-out: CLH
[21] = Stability in rat liver microsomes assessed as intrinsic clearance; type: ADME, Microsome; conditions: read-out: CLH
[22] = Stability in mouse liver microsomes assessed as intrinsic clearance; type: ADME, Microsome; conditions: read-out: CLH
[23] = Stability in human liver microsomes assessed as hepatic clearance; type: ADME, Microsome
[24] = Stability in dog liver microsomes assessed as hepatic clearance; type: ADME, Canis lupus familiaris, Microsome
[25] = Stability in monkey liver microsomes assessed as hepatic clearance; type: ADME, Microsome; conditions: chlorocebus aethiops
[26] = Stability in rat liver microsomes assessed as hepatic clearance; type: ADME, Microsome
[27] = Stability in mouse liver microsomes assessed as hepatic clearance; type: ADME, Microsome

Sequence of Protein cereblon/Receptor-type tyrosine-protein kinase FLT3 (Homo sapiens), P36888+Q96SW2 [UNDEFINED MUTATION] (P36888 whole entry, looked up, change not shown): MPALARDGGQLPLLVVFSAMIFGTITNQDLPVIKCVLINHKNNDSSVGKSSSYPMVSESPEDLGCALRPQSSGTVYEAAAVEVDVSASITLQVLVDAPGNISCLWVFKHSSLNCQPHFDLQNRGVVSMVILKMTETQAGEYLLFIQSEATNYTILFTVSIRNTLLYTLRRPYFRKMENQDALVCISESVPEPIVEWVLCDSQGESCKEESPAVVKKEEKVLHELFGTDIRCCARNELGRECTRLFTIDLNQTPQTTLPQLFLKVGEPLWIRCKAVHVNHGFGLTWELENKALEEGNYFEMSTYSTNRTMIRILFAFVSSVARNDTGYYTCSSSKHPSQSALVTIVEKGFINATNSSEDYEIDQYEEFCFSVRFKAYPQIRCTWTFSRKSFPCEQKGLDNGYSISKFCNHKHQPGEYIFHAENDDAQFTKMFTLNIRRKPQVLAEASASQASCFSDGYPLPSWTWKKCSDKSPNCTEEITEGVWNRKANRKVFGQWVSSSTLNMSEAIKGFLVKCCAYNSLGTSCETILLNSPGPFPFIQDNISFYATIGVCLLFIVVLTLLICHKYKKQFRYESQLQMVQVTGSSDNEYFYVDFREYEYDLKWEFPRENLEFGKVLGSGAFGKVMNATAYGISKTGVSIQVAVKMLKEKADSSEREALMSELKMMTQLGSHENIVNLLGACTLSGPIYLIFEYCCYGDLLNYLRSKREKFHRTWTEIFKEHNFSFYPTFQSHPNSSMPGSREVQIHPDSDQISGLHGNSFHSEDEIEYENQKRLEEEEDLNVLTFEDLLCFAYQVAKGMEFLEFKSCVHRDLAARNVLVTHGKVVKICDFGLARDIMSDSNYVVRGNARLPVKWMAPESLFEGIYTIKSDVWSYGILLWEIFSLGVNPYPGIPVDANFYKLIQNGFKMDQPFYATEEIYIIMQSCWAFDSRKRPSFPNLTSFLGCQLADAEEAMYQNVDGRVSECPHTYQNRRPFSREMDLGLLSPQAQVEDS
Sequence of Protein cereblon/Receptor-type tyrosine-protein kinase FLT3 (Homo sapiens), P36888+Q96SW2 [UNDEFINED MUTATION] (Q96SW2 whole entry, looked up, change not shown): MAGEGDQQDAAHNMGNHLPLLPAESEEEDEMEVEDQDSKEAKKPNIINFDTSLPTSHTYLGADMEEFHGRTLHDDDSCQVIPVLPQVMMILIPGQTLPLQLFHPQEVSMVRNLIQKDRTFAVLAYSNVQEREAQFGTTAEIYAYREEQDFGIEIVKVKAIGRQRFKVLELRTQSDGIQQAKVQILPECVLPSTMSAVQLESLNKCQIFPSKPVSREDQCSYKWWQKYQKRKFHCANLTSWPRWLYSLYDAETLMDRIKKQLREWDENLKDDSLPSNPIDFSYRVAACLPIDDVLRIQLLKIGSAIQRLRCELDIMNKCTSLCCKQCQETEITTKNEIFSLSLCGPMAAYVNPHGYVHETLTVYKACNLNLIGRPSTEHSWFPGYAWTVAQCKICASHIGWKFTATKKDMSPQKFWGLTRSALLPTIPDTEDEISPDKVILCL

SMILES: Cc1c(NC(=O)CN2CCN(C(=O)CCCCCCCCCCCNc3cccc4c3C(=O)N(C3CCC(=O)NC3=O)C4=O)CC2)c[nH]c1/C=C1\C(=O)Nc2ccc(F)cc21 (stereo not drawn)
IC50 (MV4-11 [1]): 372 nM
IC50 (MOLM-13 [2]): > 1000 nM

SMILES: Cc1c(NC(=O)CN2CCN(CC3CCN(c4ccc5c(c4)C(=O)N(C4CCC(=O)N(C)C4=O)C5=O)CC3)CC2)c[nH]c1/C=C1\C(=O)Nc2ccc(F)cc21 (stereo not drawn)
Activity [3]: inactive
Activity [4]: inactive
Activity (MV4-11 [5]): inactive
Activity (MOLM-13 [6]): inactive

SMILES: CC(C)(C)c1cc(NC(=O)Nc2ccc(-c3cn4c(n3)sc3cc(OCCN5CCOCC5)ccc34)cc2)no1 [QUIZARTINIB]
IC50 (MV4-11 [1]): 33.7 nM
IC50 (MOLM-13 [2]): 39.4 nM
IC50 (MOLM-13 [7]): 1230 nM
IC50 (MOLM-13 [8]): 40900 nM

SMILES: CCN(CC)CCNC(=O)c1c(C)[nH]c(/C=C2\C(=O)Nc3ccc(F)cc32)c1C [SUNITINIB]
IC50 (MOLM-13 [7]): 1460 nM
IC50 (MOLM-13 [8]): > 1000 nM

SMILES: Cc1ncsc1-c1ccc(CNC(=O)[C@@H]2C[C@@H](O)CN2C(=O)[C@@H](NC(=O)CCCCCC(=O)N2CCN(CC(=O)Nc3c[nH]c(/C=C4\C(=O)Nc5ccc(F)cc54)c3C)CC2)C(C)(C)C)cc1
IC50 (MV4-11 [1]): 216 nM
IC50 (MOLM-13 [2]): > 1000 nM

SMILES: Cc1c(NC(=O)CN2CCN(CCCCCCCCC(=O)Nc3cccc4c3C(=O)N(C3CCC(=O)NC3=O)C4=O)CC2)c[nH]c1/C=C1\C(=O)Nc2ccc(F)cc21 (stereo not drawn)
IC50 (MV4-11 [1]): 231 nM
IC50 (MOLM-13 [2]): 299 nM

SMILES: Cc1c(NC(=O)CN2CCN(C(=O)CCCCCCCCC(=O)NCCNc3cccc4c3C(=O)N(C3CCC(=O)NC3=O)C4=O)CC2)c[nH]c1/C=C1\C(=O)Nc2ccc(F)cc21 (stereo not drawn)
IC50 (MV4-11 [1]): 214 nM
IC50 (MOLM-13 [2]): 233 nM

SMILES: Cc1c(NC(=O)CCN2CCCC2)c[nH]c1/C=C1\C(=O)Nc2ccc(F)cc21
IC50 (MV4-11 [1]): 24 nM
IC50 at 48 h [9]: 1500 nM
IC50 at 48 h [10]: 2780 nM
IC50 at 48 h [11]: 6450 nM
inhibition in vivo at 1.6 mg/kg (MV4-11 [12]): 39.8%
IC50 (MOLM-13 [7]): 811 nM
IC50 (MOLM-13 [8]): 1520 nM
half-life [13]: 3.21 h
half-life [14]: 1.5 h
half-life [15]: 0.983 h
half-life [16]: 1.01 h
half-life [17]: 0.758 h
CLint scaled [18]: 8.32 mL/min/kg
CLint scaled [19]: 22.1 mL/min/kg
CLint scaled [20]: 31.7 mL/min/kg
CLint scaled [21]: 41 mL/min/kg
CLint scaled [22]: 120 mL/min/kg
CLhep predicted [23]: 5.93 mL/min/kg
CLhep predicted [24]: 12.9 mL/min/kg
CLhep predicted [25]: 18.4 mL/min/kg
CLhep predicted [26]: 27.7 mL/min/kg
CLhep predicted [27]: 51.4 mL/min/kg

SMILES: Cc1c(NC(=O)CN2CCN(C3CC4(CCN(c5ccc6c(c5)C(=O)N(C5CCC(=O)NC5=O)C6=O)CC4)C3)CC2)c[nH]c1/C=C1\C(=O)Nc2ccc(F)cc21 (stereo not drawn)
IC50 (MV4-11 [1]): 51.7 nM
IC50 (MOLM-13 [2]): 249 nM

SMILES: Cc1c(NC(=O)CN2CCN(C3CN(c4ccc5c(c4)C(=O)N(C4CCC(=O)NC4=O)C5=O)C3)CC2)c[nH]c1/C=C1\C(=O)Nc2ccc(F)cc21 (stereo not drawn)
IC50 (MV4-11 [1]): 170 nM
IC50 (MOLM-13 [2]): 367 nM

Results, then the compound that gave them:

IC50 (MV4-11 [1]): 396 nM
IC50 (MOLM-13 [2]): 445 nM
SMILES: Cc1c(NC(=O)CN2CCN(C(=O)CCOCCOCCOCCNc3cccc4c3C(=O)N(C3CCC(=O)NC3=O)C4=O)CC2)c[nH]c1/C=C1\C(=O)Nc2ccc(F)cc21 (stereo not drawn)

IC50 (MV4-11 [1]): 168 nM
IC50 (MOLM-13 [2]): 487 nM
SMILES: Cc1c(NC(=O)CN2CCN(C(=O)CCCCCC(=O)NCCNc3cccc4c3C(=O)N(C3CCC(=O)NC3=O)C4=O)CC2)c[nH]c1/C=C1\C(=O)Nc2ccc(F)cc21 (stereo not drawn)

IC50 (MV4-11 [1]): 141 nM
IC50 (MOLM-13 [2]): 206 nM
SMILES: Cc1c(NC(=O)CN2CCN(C(=O)CCCCCCNc3cccc4c3C(=O)N(C3CCC(=O)NC3=O)C4=O)CC2)c[nH]c1/C=C1\C(=O)Nc2ccc(F)cc21 (stereo not drawn)

IC50 (MV4-11 [1]): 326 nM
IC50 (MOLM-13 [2]): 542 nM
SMILES: Cc1c(NC(=O)CN2CCN(C(=O)CCOCCNc3cccc4c3C(=O)N(C3CCC(=O)NC3=O)C4=O)CC2)c[nH]c1/C=C1\C(=O)Nc2ccc(F)cc21 (stereo not drawn)

IC50 (MV4-11 [1]): 169 nM
IC50 (MOLM-13 [2]): 208 nM
SMILES: Cc1c(NC(=O)CN2CCN(C(=O)CCCCCNc3cccc4c3C(=O)N(C3CCC(=O)NC3=O)C4=O)CC2)c[nH]c1/C=C1\C(=O)Nc2ccc(F)cc21 (stereo not drawn)

IC50 (MV4-11 [1]): 201 nM
IC50 (MOLM-13 [2]): 686 nM
SMILES: Cc1c(NC(=O)CN2CCN(C(=O)CCOCCOCCNc3cccc4c3C(=O)N(C3CCC(=O)NC3=O)C4=O)CC2)c[nH]c1/C=C1\C(=O)Nc2ccc(F)cc21 (stereo not drawn)

IC50 (MV4-11 [1]): 230 nM
IC50 (MOLM-13 [2]): > 1000 nM
SMILES: Cc1c(NC(=O)CN2CCN(C(=O)CCCC(=O)NCCNc3cccc4c3C(=O)N(C3CCC(=O)NC3=O)C4=O)CC2)c[nH]c1/C=C1\C(=O)Nc2ccc(F)cc21 (stereo not drawn)
